Assay results reported in patent US20210108198A1, “APPLICATION OF COMPOUND OR TRADITIONAL CHINESE MEDICINE EXTRACT IN PREPARATION OF NUCLEIC ACID DELIVERY AGENT AND RELATED PRODUCTS THEREOF” (INSTITUTE OF BASIC MEDICAL SCIENCES CHINESE ACADEMY OF …, priority 2017, published 2021).
Entries after “also recorded” stand apart in the source; their conditions may differ.

Experiments:
[1] = In vivo delivery of single-stranded sRNA by single lipid via gavage (blood, stomach, small intestine, liver); set-up: species or system C57 mice; conditions: 10 μl lipid, heating method
From the text: Tissues sampled: live/stomach/small intestine.

[2] = tested on: A549 cell; assay: RT-qPCR detection of nucleic acid delivered by lipid into A549 cells; assay type: cell-based, human; conditions: RNA 100 nM; for delivery of double-stranded HJT-sRNA-m7 by single lipid (real-time PCR): 12 hours
[3] = tested on: A549 cells; assay: Digital PCR (ddPCR) detection of the efficiency of nucleic acid delivery by lipid; assay type: cell-based, human
Protocol: (§1) 2.2 Experimental method: the total cellular RNA was collected and extracted by TRIzol lysis buffer according to the above methods, and reverse transcribed to cDNA using High capacity cRNA Reverse Transcription Kit, and the cDNA from different groups was subject to digital PCR reaction. Refering to the QX200 Droplet Reader and QuantaSoft Software manual for the protocols, the results were analyzed using QuantaSoft software.
as §1, with “method:” for “method: the”, “total” for “total cellular”, “method,” for “methods,”, “subjected” for “subject”, “Refer” for “Refering”, “protocols;” for “protocols,”
(§2) 2.2 Experimental method: Total RNA was collected and extracted by TRIzol lysis buffer according to the above method, and reverse transcribed to cDNA using TaqMan™ MicroRNA Reverse Transcription KitHigh, and the cDNA from different groups was subjected to digital PCR reaction. Refer to the QX200 Droplet Reader and QuantaSoft Software manual for the protocols; the results were analyzed using QuantaSoft software.
as §2, with “reversed” for “reverse transcribed”, “High capacity cRNA” for “TaqMan™ MicroRNA”, “Kit,” for “KitHigh,”

[4] = tested on: A549 cells; assay: Confocal fluorescence microscopy of nucleic acid delivered by lipid in cells; assay type: cell-based, human; conditions: 4 μl lipid, boiling method; 6 hours of co-incubation
Protocol: Experimental materials: A549 cells (purchased from the Cell Center of the Chinese Academy of Medical Sciences), PGY-sRNA-6-Cy3 (purchased from Ribobio Biotechnology Co., Ltd.), lipid No. 41, Zeiss LSM780 (purchased from Zeiss, Germany), Alexa Fluor® 488 phalloidin (purchased from Invitrogen, USA), DAPI (purchased from Invitrogen, USA), paraformaldehyde (purchased from sigma, USA).
(§3) Experimental methods: PGY-sRNA-6-FAM was dissolved in 100 μl water, mixed with 4 μl lipid, and prepared by the boiling method. Then the mixture was dropped into A549 cells, and after 6 hours of co-incubation, the samples were washed three times with PBS, fixed with 4% paraformaldehyde, washed three times with PBS, stained with Alexa Fluor® 488 phalloidin for 30 min, washed 3 times with PBS, and stained with DAPI for 5 min, washed with PBS, and then sealed.
as §3, with “method:” for “methods:”, “water, and” for “water,”, “by” for “by the”, “Then,” for “Then”, “PBS washed,” for “washed with PBS,”

CCCCCCCCCCCCCCCCCCC[C@@H](O)[C@@H](N)CO [No. 41, Sphinganine (d22:0)]
entry of single-stranded small RNA into mouse blood (RT-qPCR) ([1]; 1 nmol each sRNA (PGY-sRNA-23/-26/-32), 6 hours or 12 hours after administration): could promote the entry of small RNA into the blood, protecting it from degradation in the blood; also recorded: could effectively deliver sRNA single-stranded nucleic acid into the mouse blood via oral administration to protect sRNA from degradation; also recorded: the delivery effect was better than POPC and Lipofectamine RNAiMAX
entry of single-stranded small RNA into mouse stomach (RT-qPCR) ([1]; 1 nmol each sRNA, FIG. 109): could promote the entry of small RNA into the stomach cells, protecting it from degradation in the stomach; also recorded: could effectively deliver sRNA single-stranded nucleic acid into the mouse stomach via oral administration to protect sRNA from degradation
entry of single-stranded small RNA into mouse small intestine (RT-qPCR) ([1]; 1 nmol each sRNA, FIG. 110): could promote the entry of small RNA into small intestinal cells, protecting it from degradation in the small intestine; also recorded: could effectively deliver sRNA single-stranded nucleic acid into the mouse small intestine via oral administration to protect sRNA from degradation
entry of single-stranded small RNA into mouse liver (RT-qPCR) ([1]; 1 nmol each sRNA, FIG. 111): could promote the entry of small RNA into the liver, protecting it from degradation in the liver; also recorded: could effectively deliver sRNA single-stranded nucleic acid into the mouse liver via oral administration to protect sRNA from degradation
delivery of double-stranded HJT-sRNA-m7 by single lipid (real-time PCR) ([2]; boiling (heating) method, 2.5 μL single lipid): delivered HJT-sRNA-m7 double-stranded RNA into A549 cells; also recorded: about twice that of RNAiMAX
delivery of single-stranded HJT-sRNA-m7 by single lipid (real-time PCR) ([2]; boiling (heating) method, 12 hours (No. 37: 3 hours)): delivered HJT-sRNA-m7 single-stranded RNA into A549 and MRC-5 cells
delivery of double-stranded HJT-sRNA-m7 by single lipid (real-time PCR) ([2]; reverse evaporation method): delivered HJT-sRNA-m7 double-stranded RNA into A549 cells; also recorded: significantly higher than that of RNAiMAX
delivery of HJT-sRNA-m7 dsRNA (ddPCR) ([3]; boiling method, 6 hours): could effectively deliver HJT-sRNA-m7 dsRNA into A549 cells; also recorded: the boiling method had better effects than reverse evaporation method
delivery of HJT-sRNA-m7 dsRNA (ddPCR) ([3]; reverse evaporation method, 6 hours (No. 39: 6 hours, 12 hours)): could effectively deliver HJT-sRNA-m7 dsRNA into A549 cells
entry of PGY-sRNA-6-Cy3 observed under the confocal microscopy [4]: could effectively deliver double-stranded nucleic acid into A549 cells
